Test results from ChEMBL document CHEMBL1130553, “Covalent binding of catechols to src family SH2 domains” (Bioorg Med Chem Lett, 1997).

Assays:
[1] = molecular target: T1, Tyrosine-protein kinase Fyn (Homo sapiens, UniProt P06241); experiment: Inhibition of peptide EPQ (pY) EEIPI binding to Fyn protein kinase SH2 domain at 100 uM (no inhibition)
[2] = molecular target: T1, Tyrosine-protein kinase Fyn; experiment: Inhibition of peptide EPQ (pY) EEIPI binding to Fyn protein kinase SH2 domain

T1 sequence (P06241 whole entry, the tested form may be a part): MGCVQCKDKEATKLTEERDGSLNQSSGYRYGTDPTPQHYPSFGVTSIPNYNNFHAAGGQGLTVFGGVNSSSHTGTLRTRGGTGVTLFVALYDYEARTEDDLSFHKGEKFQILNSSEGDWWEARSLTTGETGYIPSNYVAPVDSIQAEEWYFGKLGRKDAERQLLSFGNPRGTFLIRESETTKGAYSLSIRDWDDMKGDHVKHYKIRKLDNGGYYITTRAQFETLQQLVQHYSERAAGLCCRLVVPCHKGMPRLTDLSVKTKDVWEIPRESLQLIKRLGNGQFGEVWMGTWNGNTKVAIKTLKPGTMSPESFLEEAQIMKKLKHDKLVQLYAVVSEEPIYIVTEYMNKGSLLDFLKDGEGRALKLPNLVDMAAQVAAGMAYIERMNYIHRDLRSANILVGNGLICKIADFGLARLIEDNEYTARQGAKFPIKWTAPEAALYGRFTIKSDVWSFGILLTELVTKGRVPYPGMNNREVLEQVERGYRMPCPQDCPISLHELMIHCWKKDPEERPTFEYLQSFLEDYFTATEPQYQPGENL

| SMILES | IC50 [1] | IC50 [2] |
| --- | --- | --- |
| CCCN(CCC)C1Cc2cc(OC)c(OC)cc2C1 [PNU-99194A] | > 100 µM |  |
| NC1Cc2cc(O)c(O)cc2C1 |  | 10 µM |
| CCCN(CCC)C1Cc2cc(O)cc(O)c2C1 (centres undefined) | > 100 µM |  |
| CCCN(CCC)C1Cc2c(O)ccc(O)c2C1 |  | 50 µM |
| CC1=CC(=O)C(=O)C=C1C |  | 1 µM |
| Oc1cc2c(cc1O)CC(NCc1ccccc1)C2 |  | 10 µM |
| CCCN(CCC)C1Cc2ccc(O)cc2C1 (centres undefined) | > 100 µM |  |
| CCCC1Cc2cc(O)c(O)cc2C1 |  | 1 µM |
| NCCc1ccc(O)c(O)c1 [DOPAMINE] | > 100 µM |  |
| CCCN(CCC)C1Cc2cc(O)c(OC)cc2C1 (centres undefined) | > 100 µM |  |
| CCCN(CCC)C1CCc2cc(O)c(O)cc2C1 (centres undefined) |  | 50 µM |
| Oc1cc2c(cc1O)CC(N1CCCCC1)C2 |  | 10 µM |
| CCCN(CCC)C1Cc2cc(O)c(O)cc2C1 |  | 10 µM |
| CCCN(CCC)CCc1ccc(O)c(O)c1 | > 100 µM |  |
